Columns and labels:
[1] = body weight and dietary intake of leptin receptor-deficient (ob/ob) mice; assay type: in vivo, mouse; conditions: for Weight reduction In ob/ob mice (4 wk): after four weeks, relative to ob/ob mice without administration (control), method of Example 23
Description: All experimental animal procedures were performed according to a guideline of Institutional Animal Care and Use Committee, Chungnam National University School of Medicine. OLETF rats were purchased from Otsuka Research Institute. Male ob/ob and C57BL/6 mice were purchased from Jackson Laboratory. Animals were housed in a breeding room maintained at a constant temperature of […] and a 12 h/12 h light/dark (L/D) cycle. 4-week-old C57BL/6 male mice were fed ad libitum high fat diet (HFD, 24% (w/w) and 45% calories as fat, Research Diets Inc., New Brunswick, N.J. 08901, US) for 7 weeks. Mouse groups were divided into an untreated group, a vehicle-treated group (calcium silicate), a pair-fed group and a candidate compound-treated group (calcium silicate-coated […] nanoparticles). Body weight and dietary intake of animals were daily measured. Upon completion of experiments, some mice of each group were anesthetized and received MRI examinations. The remaining mice of the groups were anatomized and tissue weight thereof was measured. Epidydimal fat, liver, soleus muscle and extensor digitorum longus (EDL) were prepared, and immunohistochemical, oil-red 0 and pH-sensitive ATPase staining were performed for analysis.
FIGS. 46 and 47 show changes in dietary intake/body weight and changes in body weight for 56 days, according to daily administration of pyrano-1,2-naphthoquinone into leptin receptor-deficient (ob/ob) mice at a dose of 200 mg/kg via an oral route.
This Example was intended to examine effects of varying in vivo NAD(P)^+/NAD(P)H ratio by arbitrary external supply of NAD(P)^+, a method capable of elevating the NAD(P)^+/NAD(P)H ratio in vivo. 100 mg/kg of NAD^+ was administered daily to leptin receptor-deficient (ob/ob) mice via an intraperitoneal (i.p.) route. A control mice group was given i.p. administration of physiological saline at the same dose. Changes in dietary intake/body weight (A) and changes in body weight (B) were measured for 30 days.
200 mg/kg of DMF was daily administered to leptin receptor-deficient (ob/ob) mice via an oral route. A control group received daily i.p. administration of physiological saline at the same dose. Changes in body weight (A) and changes in dietary intake (B) were measured for 30 days. It was confirmed that dietary intake of the treatment group was regulated to a 60 to 70% level of the control group.
(§1) For a variety of NQO1-activating candidate compounds as listed in Table 1 below, a decrease of NAD(P)H was measured based on the aforesaid experimental method (disclosed in Section 10 hereinbefore: NADH recycling assay). In addition, according to the experimental method given in Example 23, the body weight of ob/ob mice after four weeks was measured.
(§2) In this connection, the decreasing degree of NAD(P)H was expressed as a relative amount of NAD(P)H measured upon administration of the NQO1-activating candidate compound, by taking the amount of NAD(P)H in the absence of the NQO1 activator NAD(P)H to be 100. In addition, the degree of the body weight loss was expressed as a percentage of the body weight of ob/ob mice with administration of the NQO1-activating candidate compound, relative to the body weight of ob/ob mice without administration of the NQO1-activating candidate compound (control) after four weeks.

NQO1 = experiment: NAD(P)H recycling assay (decrease of NAD(P)H by NQO1-activating candidate compounds); assay type: biochemical; conditions: for Residual amount of NAD(P)H(%): relative amount of NAD(P)H, amount in the absence of the NQO1 activator taken to be 100; for decrease of NAD(P)H and consequent body weight reduction: summary of Table 1 in words
Description: (10) NAD(P)H Recycling Assay
An NADH recycling assay was carried out using the above-extracted S9 supernatant or human recombinant NQO1 (hrNQO1). 20 μg of the S9 supernatant or 0.5 unit of hrNQO1 in conjunction with 200 μM NAD(P)H were added to a 25 mM Tris/HCl (pH 7.4) solution containing 0.2 mg/mL bovine serum albumin. The enzymatic reaction was initiated with addition of a […] compound and absorbance changes were monitored and recorded at 340 nm for 10 min.
as §1, §2

AMPK = AMPK phosphorylation in HEK293 cells (Western blot); assay type: cell-based, human; conditions: HEK293 cells, AICAR 2 mM, 30 min
Description: Cells were lysed in SDS sample buffer (62.5 mM Tris HCl (pH 6.8), 6% (w/v) SDS, 30% glycerol, 125 mM DTT, and 0.03% (w/v) bromophenol blue). The total cell lysates were boiled at a temperature of 100° C. for 5 min and electrophoresed on a sodium dodecyl sulfate-polyacrylamide gel, and proteins were transferred on a nitrocellulose membrane. The membrane was reacted in TBS (5% (w/v) milk and 0.1% Tween 20) for 1 hour, and then reacted with primary antibodies for 2 hours. Next, the membrane was developed using HRP-conjugated secondary antibodies (Phototope-HRP Western Blot Detection Kit, New England Biolabs, Beverly, Mass.).
In order to investigate the importance of an NQO1 protein in phosphorylation of AMP kinase, HepG2, MCF-7 and HEK293 cells were seeded onto 60 mm plates at a density of 1×10^6 cells/plate. After growing the cells for 24 hours, the culture medium was replaced with a serum-free medium, and cells were treated with pyrano-1,2-naphthoquinone (10 μM) for 30 min, respectively, in combination with a control group (DMSO). Cells were lysed in RIPA buffer and amounts of all proteins were quantified using a spectrophotometer, and 50 μg of the protein was subjected to electrophoresis. AMP kinase phosphorylation was examined using Anti-AMPK and Anti-pT172-AMPK, whereas the NQO1 protein was assayed using Anti-NQO1. From the fact that AMP kinase phosphorylation by pyran-1,2-naphthoquinone (10 μM) was not observed in HEK293 cells, it can be seen that the NQO1 protein is crucial for phosphorylation of AMP kinase.
In order to examine that an activity of NQO1 is important for the phosphorylation of AMP kinase, HEK293 cells were seeded onto a 6-well plate at a density of 1×10^5 cells/well, cultured for 24 hours, and transfected with pSG5-HA-NQO1 (500 ng) and pSG5-HA-NOQ1-C609T (500 ng) plasmids. After 24 hours, the culture medium was replaced with a serum-free medium, and the cells were treated with pyrano-1,2-naphthoquinone (10 μM) and AICAR (2 mM) for 30 min, in combination with a control (DMSO). AMP kinase phosphorylation were assayed using Anti-AMPK and Anti-pT172-AMPK, whereas transfected NQO1 was assayed using Anti-HA.
In addition, AMPK phosphorylation/activation was not promoted in HEK293 cells, except for HEK293 cells transfected with wild type NQO1.

HepG2 cells [2] = experiment: calcium influx (Fluo-4) in HepG2 cells; assay type: cell-based, human; conditions: dicoumarol 5 μM pretreated 30 min
Description: Cells were grown on a coverslip in a culture medium for 24 hours, maintained in an RPMI 1640 serum-free medium for 1 hour, and pretreated with a calcium indicator Fluo-4 (5 μM) for 30 min. After pretreatment, the coverslip was mounted on a slide glass. Changes in an intracellular calcium concentration were observed using a fluorescence microscope (Carl Zeiss) for 30 sec, and cells were treated with a candidate compound (e.g. pyran-1,2-naphthoquinone) simultaneously with consecutive imaging of calcium changes using a fluorescence microscope (Carl Zeiss) for 2 sec. […] Changes in the intracellular calcium concentration were observed using a fluorescence microscope (Carl Zeiss) for 30 sec, and cells were treated with pyre-1,2-naphthoquinone (10 μM), followed by continuous shooting of calcium changes using a fluorescence microscope for 2 sec. Using an LSM Image Browser program (Carl Zeiss), 300 images taken for 10 min every 2 seconds were sorted and ordered in a time sequence and plotted on a graph.
For determination of the inner mitochondrial membrane potential (ΔΨm), 20 nM of TMRE (tetramethylrhodamine ethyl ester) as a fluorescent indicator was continuously applied to be loaded on cells. In order to monitor mitochondrial Ca^2+, cells on glass coverslips were loaded with 10 μM Rhod-2 AM via cold loading/warm incubation. In order to monitor cytosolic Ca^2+, cells were co-loaded with 10 μM Fluo-4 AM at 37′C for 30 min. […] Images for TMRE (red fluorescence), Rhod-2 (red fluorescence) and Fluo-4 (green fluorescence) were obtained using an inverted Zeiss 510META laser-scanning confocal microscope equipped with ×63 numerical aperture, 1.4 oil-immersion planapochromat lens. Green fluorescence and red fluorescence were illuminated with light of 488 nm and 543 nm. […]
Cells were cultured for 24 hours and then pre-treated with Fluo-4 for 30 min. Cells immobilized on a coverslip were transferred to a slide glass and treated with pyrano-1,2-naphthoquinone (10 μM), and at the same time images were taken every 2 seconds for 10 min using a fluorescence microscope.

HepG2 cells [3] = experiment: mitochondrial membrane potential (TMRE fluorescence) in HepG2 cells; assay type: cell-based, human; conditions: dicoumarol-treated cells
Description: For determination of the inner mitochondrial membrane potential (ΔΨm), 20 nM of TMRE (tetramethylrhodamine ethyl ester) as a fluorescent indicator was continuously applied to be loaded on cells. In order to monitor mitochondrial Ca^2+, cells on glass coverslips were loaded with 10 μM Rhod-2 AM via cold loading/warm incubation. In order to monitor cytosolic Ca^2+, cells were co-loaded with 10 μM Fluo-4 AM at 37′C for 30 min. The cells were washed twice with a KB solution, and mounted in a perfusion chamber. Fluorescent imaging was taken using a confocal laser scanning microscope (LSM-510 META, Carl Zeiss) at a magnification of ×200 and ×400, in conjunction with appropriate laser lines and a filter set. Image analysis was carried out using LSM-510 META software (Zeiss). Images for TMRE (red fluorescence), Rhod-2 (red fluorescence) and Fluo-4 (green fluorescence) were obtained using an inverted Zeiss 510META laser-scanning confocal microscope equipped with ×63 numerical aperture, 1.4 oil-immersion planapochromat lens. Green fluorescence and red fluorescence were illuminated with light of 488 nm and 543 nm. Incident light was passed through a 545 nm dichroic mirror and observed via a 500 to 530 nm band-pass (green) filter and a 560 nm long-pass (red) barrier filter.
However, such effects were not observed in HEK293 cells. […]

| Compound | Weight reduction In ob/ob mice (4 wk) [1] | Residual amount of NAD(P)H(%) (NQO1) | decrease of NAD(P)H and consequent body weight reduction (NQO1) | further results |
| --- | --- | --- | --- | --- |
| CC1C2=C(OC1(C)C)c1ccccc1C(=O)C2=O (centres unmarked) [2,2,3-Trimethyl-2,3-dihydro-naphtho[1,2-b]furan-4,5-dione] | −27.9 ± 0.5% | 52.75 ± 1.88 | significant decrease of NAD(P)H | – |
| CC1(C)CC2=C(O1)c1ccccc1C(=O)C2=O [2,2-Dimethyl-2,3-dihydro-naphtho[1,2-b]furan-4,5-dione] | −27.8 ± 8.1% | 45.9 ± 3.90 | significant decrease of NAD(P)H | – |
| CC1(C)CCC2=C(O1)C(=O)c1ccccc1C2=O [2,2-Dmethyl-3,4-dihydro-2H-benzo[g]chromene-5,10-dione] | 1.3 ± 2.8% | 95 ± 4.5 | – | – |
| CC1OC2=C(C(=O)C(=O)c3ccccc32)C1(C)C (centres unmarked) [2,3,3-Trimethyl-2,3-dihydro-naphtho[1,2-b]furan-4,5-dione] | −46.2 ± 11.1% | 64.39 ± 1.69 | significant decrease of NAD(P)H | – |
| CC(C)=C/C(C)=C/C1(C)OC2=C(CC1C)C(=O)C(=O)c1ccccc12 (centres unmarked) [2-(2,4-Dimethyl-penta-1,3-dienyl)-2,3-dimethyl-3,4-dihydro-2H-benzo[h]chromene-5,6-dione] | −2.2 ± 0.07% | 98.06 ± 5.14 | – | – |
| CC1CC2=C(O1)c1ccccc1C(=O)C2=O (centres unmarked) [2-Methyl-2,3-dihydro-naphtho[1,2-b]furan-4,5-dione] | −39.5 ± 3.1% | 49.73 ± 1.98 | significant decrease of NAD(P)H | – |
| CC(C)=CC1(C)CCC2=C(O1)C(=O)c1ccccc1C2=O (centres unmarked) [2-Methyl-2-(2-methyl-propenyl)-3,4-dihydro-2H-benzo[g]Chromene-5,10-dione] | −0.7 ± 2.0% | 99.74 ± 2.69 | – | – |
| CC(C)C1=CC2OC3=C(CC2(C)CC1)C(=O)c1ccccc1C3=O (centres unmarked) [3-Isoprophy-12a-methyl-2,4a,12,12a-tetradro-7H-benzo[b]xanthene-6,11-dione] | 0.3 ± 2.8% | 99.45 ± 3.56 | – | – |
| CC(C)C1=CC2OC3=C(CC2(C)CC1)C(=O)C(=O)c1ccccc13 (centres unmarked) [10-Isopropyl-7a-methyl-7a,8,9,11a-tetrahydro-7H-benzo[c]xanthene-5,6-dione] | −6.7 ± 2.1% | 77.55 ± 4.19 | significant decrease of NAD(P)H | – |
| NC(=O)c1ncn([C@@H]2O[C@H](CO)[C@@H](O)[C@H]2O)c1N [AICAR, 5-aminoimidazole-4-carboxamide-1-beta-D-ribofuranoside, reference compound] | – | – | – | phosphorylation of AMPK (AMPK): increase in phosphorylation of AMPK |
| COC1=C(OC)C(=O)C(C/C=C(\C)CC/C=C(\C)CC/C=C(\C)CC/C=C(\C)CC/C=C(\C)CC/C=C(\C)CC/C=C(\C)CC/C=C(\C)CC/C=C(\C)CCC=C(C)C)=C(C)C1=O [CoQ10, reference compound] | 2.3 ± 3.5− % | 101.69 ± 1.32 | – | – |
| CC1=CC(=O)c2ccccc2C1=O [Menadione, 2-Methyl-1,4-naphthoquinone, reference compound] | −2.7 ± 2.0% | 85.65 ± 2.58 | – | – |
| NC(=O)c1ccc[n+]([C@@H]2O[C@H](COP(=O)([O-])OP(=O)(O)OC[C@H]3O[C@@H](n4cnc5c(N)ncnc54)[C@H](O)[C@@H]3O)[C@@H](O)[C@H]2O)c1 [NAD^+] | – | – | – | body weight ([1]; NAD+ 100 mg/kg daily i.p., 30 days): continuous weight loss for 30 days; dietary intake/body weight ([1]; NAD+ 100 mg/kg daily i.p., at around 10 days): notably decreased |
| O=c1oc2ccccc2c(O)c1Cc1c(O)c2ccccc2oc1=O [dicoumarol, reference compound] | – | – | – | effect on calcium influx by pyrano-1,2-naphthoquinone (HepG2 cells [2]): inhibited; effects of βL on ΔΨm in dicoumarol-treated cells (HepG2 cells [3]): did not exhibit such effects |

— patent US20140106387A1, “METHOD FOR CONTROLLING NAD(P)/NAD(P)H RATIO BY OXIDOREDUCTASE” (MD BIOALPHA CO., LTD., priority 2006, published 2014)
